Like-named read-outs stand apart in the source and are kept apart here.
How the values were obtained:
[1] = test system: JAK-STAT signalling in HeLa cells; assay: JAK-STAT signalling assay (OSM-triggered pSTAT1(2)-luciferase reporter in HeLa cells); type: cell-based; details: Homo sapiens; HeLa cells, OSM-triggered pSTAT1(2)-luciferase reporter; read-out: STAT signalling EC50
How it was run: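 Read-out is oncostatin M–driven pSTAT1(2)-luciferase activity, corrected by co-transfected LacZ β-galactosidase, in transiently transfected HeLa cells cultured overnight at 37 °C, 10% CO2. Inhibition percentages against positive and negative controls were plotted across doses to derive EC50.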

MMP13 in SW1353 cells = assay: OSM/IL-1β signaling assay (MMP13 levels in SW1353 cells); type: cell-based; details: Homo sapiens; SW1353 cells, OSM and IL-1β triggered, MMP13 levels 48 hours after triggering; read-out: MMP13 EC50;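 further: secreted MMP13 captured by antibody, activated with APMA and its activity read by fluorescence, inhibition scaled between vehicle-treated triggered wells (0%) and untriggered wells (100%)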
Protocol: The cells were seeded in 96 well plates at 15,000 cells/well in a volume of 120 μL DMEM (Invitrogen) containing 10% (v/v) FBS and 1% penicillin/streptomycin (InVitrogen) incubated at 37° C. […] MMP13 activity was measured using an antibody capture activity assay. […] Next the wells were washed twice with PBS+0.05% Tween followed by MMP13 activation by addition of 35 μL of a 1.5 mM 4-Aminophenylmercuric acetate (APMA) (Sigma, A9563) solution and incubation at 37° C. for 1 hour. […] Percentage inhibition=((fluorescence determined in the presence of vehicle−fluorescence determined for sample with test compound present) divided by (fluorescence determined in the presence of vehicle−fluorescence determined for sample without trigger))*100%.

TNF-alpha release = assay: Septic shock model (LPS-induced TNF release); type: in vivo, mouse; details: 30 mg/kg po, BALB/cJ mice, LPS ip; statistically significant
Protocol: Injection of lipopolysaccharide (LPS) induces a rapid release of soluble tumour necrosis factor (TNF-alpha) into the periphery. This model is used to analyse prospective blockers of TNF release in vivo.
Six BALB/cJ female mice (20 g) per group were treated at the intended dosing once, po. Thirty minutes later, LPS (15 μg/kg; E. Coli serotype 0111:B4) was injected ip. Ninety minutes later, mice were euthanized and blood was collected. Circulating TNF alpha levels were determined using commercially available ELISA kits. Dexamethasone (5 μg/kg) was used as a reference anti-inflammatory compound. Selected compounds are tested at one or multiple doses, e.g. 3 and/or 10 and/or 30 mg/kg, po.

[2] = Microsomal stability, human liver microsomes; type: in vitro ADME; details: percentage of compound remaining after 60 minutes, 3 μM compound
How it was run: (§1)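 Percent parent remaining after 60 min was determined by LCMS against a time-zero sample quenched before microsome addition. Incubations ran at 37°C with liver microsomes and a G6PDH-based NADPH-regenerating cofactor mix. Quench was MeOH or ACN (1:1).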

[3] = Microsomal stability, rat liver microsomes; type: in vitro ADME; details: percentage of compound remaining after 60 minutes, 3 μM compound
How it was run: as §1

[4] = Caco2 permeability (bi-directional); type: in vitro ADME, human; details: human, pH 7.4; for efflux ratio at 1 h, 10 µM: Caco-2, ratio of PappB>A/PappA>B; for Papp A→B at 1 h, 10 µM: Caco-2, apical to basolateral, read-out: Papp (A2B)
How it was run: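 Compound concentrations in both chambers were measured by LC-MS/MS after 1 h incubation at 37 °C on an orbital shaker. Efflux ratio is PappB>A over PappA>B. Lucifer Yellow (50 μM in donor) confirmed layer integrity, with permeability of ≤100 nm/s required.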

[5] = target: Recombinant human JAK1 catalytic domain (Homo sapiens (Human), UniProt P23458); assay: JAK1 inhibition assay; type: biochemical
Sequence of Recombinant human JAK1 catalytic domain (P23458 850-1154): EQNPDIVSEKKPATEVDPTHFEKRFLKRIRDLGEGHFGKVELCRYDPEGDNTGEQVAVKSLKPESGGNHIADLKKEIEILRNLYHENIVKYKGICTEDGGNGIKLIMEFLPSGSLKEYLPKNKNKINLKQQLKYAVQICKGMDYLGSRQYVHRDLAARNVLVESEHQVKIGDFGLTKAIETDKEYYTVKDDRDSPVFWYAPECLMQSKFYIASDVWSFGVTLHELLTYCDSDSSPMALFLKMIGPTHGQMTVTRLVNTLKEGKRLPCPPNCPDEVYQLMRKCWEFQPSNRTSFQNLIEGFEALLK
How it was run: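 IC50 values come from dose-response series, with each point expressed as percent inhibition of cpm. Vehicle sets full activity and 10 μM staurosporine sets background. Incorporated radioactivity counted by scintillation after washing with 75 mM phosphoric acid.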

[6] = target: Recombinant human JAK2 catalytic domain (Homo sapiens (Human), UniProt O60674); assay: JAK2 inhibition assay; type: biochemical; details: semi-quantitative score
Sequence of Recombinant human JAK2 catalytic domain (O60674 808-1132): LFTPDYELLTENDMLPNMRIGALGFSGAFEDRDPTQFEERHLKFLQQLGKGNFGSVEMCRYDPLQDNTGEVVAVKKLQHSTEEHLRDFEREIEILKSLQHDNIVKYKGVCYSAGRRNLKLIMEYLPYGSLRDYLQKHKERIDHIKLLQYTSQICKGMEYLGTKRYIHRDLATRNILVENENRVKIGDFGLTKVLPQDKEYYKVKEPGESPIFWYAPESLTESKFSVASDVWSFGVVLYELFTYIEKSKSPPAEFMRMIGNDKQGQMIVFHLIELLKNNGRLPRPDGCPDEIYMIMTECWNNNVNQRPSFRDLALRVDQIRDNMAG
How it was run: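 Activity was taken as vehicle cpm minus cpm with 10 μM staurosporine, and inhibition was expressed on that scale. Incubation was 90 min at 30 °C, followed by acid quench, phosphoric acid washes and Microscint counting. Compounds were tested as dose series to obtain IC50.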

[7] = target: Recombinant human JAK3 catalytic domain (Homo sapiens (Human), UniProt P52333); assay: JAK3 inhibition assay; type: biochemical; details: semi-quantitative score
Sequence of Recombinant human JAK3 catalytic domain (P52333 781-1124): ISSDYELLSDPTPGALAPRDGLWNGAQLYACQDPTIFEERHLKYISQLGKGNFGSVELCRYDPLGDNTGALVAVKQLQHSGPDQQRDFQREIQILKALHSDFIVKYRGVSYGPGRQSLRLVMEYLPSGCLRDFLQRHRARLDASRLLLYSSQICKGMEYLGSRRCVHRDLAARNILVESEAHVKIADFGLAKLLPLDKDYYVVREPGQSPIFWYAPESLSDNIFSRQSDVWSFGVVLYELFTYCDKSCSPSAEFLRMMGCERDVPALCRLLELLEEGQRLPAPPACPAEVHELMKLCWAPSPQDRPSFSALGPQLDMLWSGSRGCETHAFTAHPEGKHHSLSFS

[8] = target: Recombinant human TYK2 catalytic domain (Homo sapiens (Human), UniProt P29597); assay: TYK2 inhibition assay; type: biochemical; details: semi-quantitative score
Sequence of Recombinant human TYK2 catalytic domain (P29597 871-1187): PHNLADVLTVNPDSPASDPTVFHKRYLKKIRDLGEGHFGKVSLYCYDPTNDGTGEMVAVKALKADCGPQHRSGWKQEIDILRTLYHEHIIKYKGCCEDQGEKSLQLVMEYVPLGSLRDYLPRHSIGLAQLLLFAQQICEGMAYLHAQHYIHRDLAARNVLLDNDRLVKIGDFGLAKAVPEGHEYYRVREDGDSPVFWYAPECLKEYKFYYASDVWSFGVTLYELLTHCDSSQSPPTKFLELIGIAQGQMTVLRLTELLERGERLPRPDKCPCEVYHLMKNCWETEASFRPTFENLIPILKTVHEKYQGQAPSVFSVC
Protocol: After 90 min at 30° C., reactions were stopped by adding of 25 μL/well of 150 mM phosphoric acid. […] Plates were washed 6 times with 300 μL per well of a 75 mM phosphoric acid solution and the bottom of the plates was sealed. 40 μL/well of Microscint-20 was added, the top of the plates was sealed and readout was performed using the Topcount (Perkin Elmer). Kinase activity was calculated by subtracting counts per minute (cpm) obtained in the presence of a positive control inhibitor (10 μM staurosporine) from cpm obtained in the presence of vehicle. The ability of a test compound to inhibit this activity was determined as: Percentage inhibition=((cpm determined for sample with test compound present−cpm determined for sample with positive control inhibitor) divided by (cpm determined in the presence of vehicle−cpm determined for sample with positive control inhibitor))*100%.
Dose dilution series were prepared for the compounds enabling the testing of dose-response effects in the TYK2 assay and the calculation of the IC50 for each compound.

Row | EC50 [1] | EC50 (MMP13 in SW1353 cells) | Microsomal Stability Human (%) [2] | Microsomal Stability Rat (%) [3] | efflux ratio at 1 h, 10 µM [4] | IC50 ([5]; semi-quantitative score) | IC50 [6] | IC50 [7] | IC50 [8] | Papp A→B at 1 h, 10 µM [4] | SMILES | reduction in the TNF release (TNF-alpha release) | IC50 [5]
1 | 101 to 500 nM | 501 to 1000 nM | * (* 0-25) | *** (*** 51-75) | 0.89 | – | – | – | – | – | O=C(Nc1nc2cccc(-c3ccc(OCc4cccnc4)cc3)n2n1)C1CC1 [Compound 36, N-(5-(4-(pyridin-3-ylmethoxy)phenyl)-[1,2,4]triazolo[1,5-a]pyridin-2-yl)cyclopropanecarboxamide] | > 50% | –
2 | 501 to 1000 nM | > 1000 nM | *** (*** 51-75) | *** (*** 51-75) | – | – | – | – | – | – | O=C(Nc1nc2cccc(-c3ccc(OCc4ccccn4)cc3)n2n1)C1CC1 [Compound 37, N-(5-(4-(pyridin-2-ylmethoxy)phenyl)-[1,2,4]triazolo[1,5-a]pyridin-2-yl)cyclopropanecarboxamide] | > 50% | –
3 | 101 to 500 nM | > 1000 nM | * (* 0-25) | * (* 0-25) | 3.64 | < 100 nM | < 100 nM | 501 to 1000 nM | 501 to 1000 nM | 10.9 ×10⁻⁶ cm/s | Cc1n[nH]c(C)c1CCOc1ccc(-c2cccc3nc(NC(=O)C4CC4)nn23)cc1 [Compound 51] | – | –
4 | 501 to 1000 nM | 501 to 1000 nM | * (* 0-25) | * (* 0-25) | 2.5 | < 100 nM | < 100 nM | 501 to 1000 nM | > 1000 nM | 19 ×10⁻⁶ cm/s | O=C(CCc1ccccc1)Nc1ccc(-c2cccc3nc(NC(=O)C4CC4)nn23)cc1 [Compound 109, N-(5-(4-(3-phenylpropanamido)phenyl)-[1,2,4]triazolo[1,5-a]pyridin-2-yl)cyclopropanecarboxamide] | – | –
5 | 501 to 1000 nM | > 1000 nM | ** (** 26-50) | ** (** 26-50) | 2.9 | < 100 nM | 101 to 500 nM | 501 to 1000 nM | > 1000 nM | 8.23 ×10⁻⁶ cm/s | O=C(NCCc1ccccc1)c1ccc(-c2cccc3nc(NC(=O)C4CC4)nn23)c(F)c1 [Compound 111, 4-(2-(cyclopropanecarboxamido)-[1,2,4]triazolo[1,5-a]pyridin-5-yl)-3-fluoro-N-phenethylbenzamide] | – | –
6 | > 1000 nM | > 1000 nM | *** (*** 51-75) | ** (** 26-50) | – | < 100 nM | – | – | – | – | O=C(Nc1nc2cccc(-c3ccc(C(=O)N4CCC(C(F)(F)F)CC4)cc3)n2n1)C1CC1 [Compound 148, N-(5-(4-(4-(trifluoromethyl)piperidine-1-carbonyl)phenyl)-[1,2,4]triazolo[1,5-a]pyridin-2-yl)cyclopropanecarboxamide] | > 50% | –
7 | 101 to 500 nM | > 1000 nM | ** (** 26-50) | *** (*** 51-75) | – | < 100 nM | < 100 nM | – | – | – | Cc1ccc(COc2ccc(-c3cccc4nc(NC(=O)C5CC5)nn34)cc2)cn1 [Compound 197, Cyclopropanecarboxylic acid {5-[4-(6-methyl-pyridin-3-ylmethoxy)-phenyl]-[1,2,4]triazolo[1,5-a]pyridin-2-yl}-amide] | > 50% | –
8 | > 1000 nM | > 1000 nM | **** (**** 76-100) | **** (**** 76-100) | 104 | < 100 nM | < 100 nM | – | – | 0.05 ×10⁻⁶ cm/s | O=C(Nc1nc2cccc(-c3ccc(C(=O)N4CCS(=O)(=O)CC4)cc3)n2n1)C1CC1 [Compound 207, Cyclopropanecarboxylic acid {5-[4-(1,1-dioxo-thiomorpholine-4-carbonyl)-phenyl]-[1,2,4]triazolo[1,5-a]pyridin-2-yl}-amide] | > 50% | –
9 | > 1000 nM | > 1000 nM | *** (*** 51-75) | **** (**** 76-100) | – | < 100 nM | < 100 nM | – | – | – | CC(=O)N(Cc1ccccn1)c1ccc(-c2cccc3nc(NC(=O)C4CC4)nn23)cc1 [Compound 208, Cyclopropanecarboxylic acid {5-[4-(acetyl-pyridin-2-ylmethyl-amino)-phenyl]-[1,2,4]triazolo[1,5-a]pyridin-2-yl}-amide] | > 50% | –
10 | 101 to 500 nM | 501 to 1000 nM | **** (**** 76-100) | **** (**** 76-100) | 13 | < 100 nM | < 100 nM | 101 to 500 nM | < 100 nM | 4 ×10⁻⁶ cm/s | O=C(Nc1nc2cccc(-c3ccc(C(=O)N4CCC(F)(F)C4)cc3)n2n1)C1CC1 [Compound 271, Cyclopropanecarboxylic acid (5-[4-(3,3-difluoro-pyrrolidine-1-carbonyl)-phenyl]-[1,2,4]triazolo[1,5-a]pyridin-2-yl}-amide] | – | –
11 | 101 to 500 nM | > 1000 nM | *** (*** 51-75) | *** (*** 51-75) | 5.98 | < 100 nM | < 100 nM | 101 to 500 nM | < 100 nM | 8.45 ×10⁻⁶ cm/s | O=C(Nc1nc2cccc(-c3ccc(CNc4ccon4)cc3)n2n1)C1CC1 [Compound 302, Cyclopropanecarboxylic acid {5-[4-(isoxazol-3-ylaminomethyl)-phenyl]-[1,2,4]triazolo[1,5-a]pyridin-2-yl}-amide] | – | –
12 | 101 to 500 nM | 501 to 1000 nM | *** (*** 51-75) | ** (** 26-50) | 6.55 | < 100 nM | < 100 nM | < 100 nM | < 100 nM | 6.55 ×10⁻⁶ cm/s | NC(=O)c1ccccc1NCc1ccc(-c2cccc3nc(NC(=O)C4CC4)nn23)cc1 [Compound 306, 2-{4-[2-(Cyclopropanecarbonyl-amino)-[1,2,4]triazolo[1,5-a]pyridin-5-yl]-benzylamino}-benzamide] | – | –
13 | 501 to 1000 nM | > 1000 nM | **** (**** 76-100) | *** (*** 51-75) | 10.1 | < 100 nM | < 100 nM | > 1000 nM | 101 to 500 nM | 4.3 ×10⁻⁶ cm/s | O=C(Nc1nc2cccc(-c3ccc(CC(=O)N4CC(F)(F)C4)cc3)n2n1)C1CC1 [Compound 317, Cyclopropanecarboxylic acid (5-{4-[2-(3,3-difluoro-azetidin-1-yl)-2-oxo-ethyl]-phenyl}-[1,2,4]triazolo[1,5-a]pyridin-2-yl)-amide] | – | –

Row | SMILES | EC50 [1] | EC50 (MMP13 in SW1353 cells) | Microsomal Stability Human (%) [2] | Microsomal Stability Rat (%) [3] | efflux ratio at 1 h, 10 µM [4] | IC50 ([5]; semi-quantitative score) | IC50 [6] | IC50 [7] | IC50 [8] | Papp A→B at 1 h, 10 µM [4] | reduction in the TNF release (TNF-alpha release) | IC50 [5]
14 | CC(=O)Nc1nc2cccc(-c3ccc(OCc4ccccc4)cc3)n2n1 [Compound 163, N-(5-(4-(benzyloxy)phenyl)-[1,2,4]triazolo[1,5-a]pyridin-2-yl)acetamide] | > 1000 nM | > 1000 nM | *** (*** 51-75) | ** (** 26-50) | 0.85 | – | < 100 nM | 101 to 500 nM | > 1000 nM | – | – | < 100 nM
